Results: ChEMBL document CHEMBL1139100, “Discovery of anticonvulsant activity of abietic acid through application of linear discriminant analysis” (Bioorg Med Chem Lett, 2007)
Active and inactive are the calls of the source. The rule behind the calls is not given here.

Key:
Mus musculus [1] = test: Neurotoxicity against Swiss mouse at 100 mg/kg, ip after 4 hrs by rotarod test; format: toxicity, organism-based; parameters: dose 100 mg/kg, route intraperitoneal; settings: in vivo
Mus musculus [2] = test: Neurotoxicity against Swiss mouse at 30 mg/kg, po after 0.5 hrs by rotarod test; format: toxicity, organism-based; parameters: dose 30 mg/kg, route oral; settings: in vivo
Mus musculus [3] = test: Anticonvulsant activity in Swiss mouse at 30 mg/kg, ip after 4 hrs by MES test; format: functional, organism-based; parameters: dose 30 mg/kg
Mus musculus [4] = test: Anticonvulsant activity in Swiss mouse at 100 mg/kg, ip after 0.5 hrs by MES test; format: functional, organism-based; parameters: dose 100 mg/kg
Mus musculus [5] = test: Anticonvulsant activity in Swiss mouse at 100 mg/kg, ip after 4 hrs by MES test; format: functional, organism-based; parameters: dose 100 mg/kg
Mus musculus [6] = test: Anticonvulsant activity in Swiss mouse at 30 mg/kg, ip after 0.5 hrs by PTZ test; format: functional, organism-based; parameters: dose 30 mg/kg
Mus musculus [7] = test: Anticonvulsant activity in Swiss mouse at 30 mg/kg, po after 4 hrs by MES test; format: functional, organism-based; parameters: dose 30 mg/kg
Mus musculus [8] = test: Neurotoxicity against Swiss mouse at 30 mg/kg, ip after 0.5 hrs by rotarod test; format: toxicity, organism-based; parameters: dose 30 mg/kg, route intraperitoneal; settings: in vivo
Mus musculus [9] = test: Anticonvulsant activity in Swiss mouse at 30 mg/kg, po after 0.5 hrs by PTZ test; format: functional, organism-based; parameters: dose 30 mg/kg
Mus musculus [10] = test: Anticonvulsant activity in Swiss mouse at 30 mg/kg, ip after 4 hrs by PTZ test; format: functional, organism-based; parameters: dose 30 mg/kg
Mus musculus [11] = test: Anticonvulsant activity in Swiss mouse at 30 mg/kg, ip after 0.5 hrs by MES test; format: functional, organism-based; parameters: dose 30 mg/kg
Mus musculus [12] = test: Anticonvulsant activity in Swiss mouse at 30 mg/kg, po after 0.5 hrs by MES test; format: functional, organism-based; parameters: dose 30 mg/kg
Mus musculus [13] = test: Neurotoxicity against Swiss mouse at 100 mg/kg, ip after 0.5 hrs by rotarod test; format: toxicity, organism-based; parameters: dose 100 mg/kg, route intraperitoneal; settings: in vivo
Mus musculus [14] = test: Anticonvulsant activity in Swiss mouse at 100 mg/kg, po after 0.5 hrs by MES test; format: functional, organism-based; parameters: dose 100 mg/kg
Mus musculus [15] = test: Anticonvulsant activity in Swiss mouse at 100 mg/kg, po after 0.5 hrs by PTZ test; format: functional, organism-based; parameters: dose 100 mg/kg
Mus musculus [16] = test: Neurotoxicity against Swiss mouse at 100 mg/kg, po after 4 hrs by rotarod test; format: toxicity, organism-based; parameters: dose 100 mg/kg, route oral; settings: in vivo
Mus musculus [17] = test: Neurotoxicity against Swiss mouse at 100 mg/kg, po after 0.5 hrs by rotarod test; format: toxicity, organism-based; parameters: dose 100 mg/kg, route oral; settings: in vivo
Mus musculus [18] = test: Anticonvulsant activity in Swiss mouse at 100 mg/kg, po after 4 hrs by MES test; format: functional, organism-based; parameters: dose 100 mg/kg
Mus musculus [19] = test: Anticonvulsant activity in Swiss mouse at 100 mg/kg, po after 4 hrs by PTZ test; format: functional, organism-based; parameters: dose 100 mg/kg
Mus musculus [20] = test: Neurotoxicity against Swiss mouse at 30 mg/kg, po after 4 hrs by rotarod test; format: toxicity, organism-based; parameters: dose 30 mg/kg, route oral; settings: in vivo
Mus musculus [21] = test: Anticonvulsant activity in Swiss mouse at 30 mg/kg, po after 4 hrs by PTZ test; format: functional, organism-based; parameters: dose 30 mg/kg
Mus musculus [22] = test: Anticonvulsant activity in Swiss mouse at 100 mg/kg, ip after 0.5 hrs by PTZ test; format: functional, organism-based; parameters: dose 100 mg/kg
Mus musculus [23] = test: Neurotoxicity against Swiss mouse at 30 mg/kg, ip after 4 hrs by rotarod test; format: toxicity, organism-based; parameters: dose 30 mg/kg, route intraperitoneal; settings: in vivo
Mus musculus [24] = test: Anticonvulsant activity in Swiss mouse at 100 mg/kg, ip after 4 hrs by PTZ test; format: functional, organism-based; parameters: dose 100 mg/kg

SMILES: CC(C)C1=CC2=CC[C@@H]3[C@](C)(CCC[C@@]3(C)C(=O)O)[C@H]2CC1 [ABIETIC ACID]
- Activity (Mus musculus [1]): Non-toxic
- Activity (Mus musculus [2]): Non-toxic
- Activity (Mus musculus [3]): Active
- Activity (Mus musculus [4]): inactive
- Activity (Mus musculus [5]): Active
- Activity (Mus musculus [6]): inactive
- Activity (Mus musculus [7]): Active
- Activity (Mus musculus [8]): Non-toxic
- Activity (Mus musculus [9]): inactive
- Activity (Mus musculus [10]): inactive
- Activity (Mus musculus [11]): inactive
- Activity (Mus musculus [12]): inactive
- Activity (Mus musculus [13]): Non-toxic
- Activity (Mus musculus [14]): inactive
- Activity (Mus musculus [15]): inactive
- Activity (Mus musculus [16]): Non-toxic
- Activity (Mus musculus [17]): Non-toxic
- Activity (Mus musculus [18]): Active
- Activity (Mus musculus [19]): inactive
- Activity (Mus musculus [20]): Non-toxic
- Activity (Mus musculus [21]): inactive
- Activity (Mus musculus [22]): inactive
- Activity (Mus musculus [23]): Non-toxic
- Activity (Mus musculus [24]): inactive
